Marks after values point to notes of the source that are not given here.
Key:
Type in all cases: in vivo
Conditions in all cases: 100 = 100% disease control
Botrytis cinerea = test: Test C: tomato Botrytis on tomato seedlings, sprayed the day before inoculation, visual disease rating
How it was run: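 Tomato seedlings were sprayed until run-off with test suspensions in acetone/water (50/50) carrying 250 ppm polyhydric alcohol ester surfactant. Standard dose was 200 ppm, with 40 ppm for marked entries.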

Alternaria solani = test: Test D: tomato early blight, sprayed the day before inoculation, visual disease rating
How it was run: (§1)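 200 ppm run-off spray (500 g/ha equivalent); * = 40 ppm. Vehicle: acetone/water 50/50, 250 ppm Trem® 014.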

Septoria nodorum = test: Test F: wheat glume blotch on wheat seedlings, sprayed the day before inoculation, visual disease rating
How it was run: as §1

Septoria tritici = test: Test G: wheat leaf blotch on wheat seedlings, sprayed the day before inoculation, visual disease rating
How it was run: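 Compounds dissolved in acetone (3% of final volume), then suspended in 50/50 acetone/water with 250 ppm Trem® 014 and sprayed to run-off on seedlings at 200 ppm (≈500 g/ha) or 40 ppm where marked. Inoculation with spores followed next day; visual rating after 48 h saturated at 24° C plus 19 days at 20° C.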

[1] = tested on: Puccinia recondita f. sp. tritici; test: Test H: wheat leaf rust, test suspension sprayed after inoculation of wheat seedlings, visual disease rating
How it was run: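 Wheat seedlings inoculated with P. recondita spores, held 24 h saturated at 20 °C, then 2 days in growth chamber at 20 °C; compound suspension (acetone/water with Trem 014) sprayed to run-off afterwards. Rated visually; 200 ppm (≈500 g/ha) unless marked *, which denotes 40 ppm.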

[2] = tested on: Puccinia recondita f. sp. tritici; test: Test I: wheat leaf rust on wheat seedlings, sprayed the day before inoculation, visual disease rating
How it was run: as §1

[3] = tested on: Erysiphe graminis f. sp. tritici; test: Test J: wheat powdery mildew on wheat seedlings, sprayed the day before inoculation, visual disease rating
How it was run: as §1

[4] = 200 ppm, 0 = no control relative to controls

Structure (SMILES) | Test C disease control rating (Botrytis cinerea; [4]) | Test D disease control rating (Alternaria solani; [4]) | Test F disease control rating (Septoria nodorum; [4]) | Test G disease control rating (Septoria tritici; [4]) | Test H disease control rating [1, 4] | Test I disease control rating [2, 4] | Test J disease control rating [3, 4] | other results
COc1ccc(F)c(-c2c(Br)ncn2-c2ccc(C)cc2)c1F [compound 473] | 99% | 100% | 0% | 97% | 0% | 100% | 100% | 
Cc1nc(Cl)n(-c2ccc(Cl)c(F)c2)c1-c1c(F)ccc(F)c1Cl [compound 494] |  |  |  |  |  |  |  | Test C disease control rating (Botrytis cinerea; 40 ppm (marked *)): 89* %; Test D disease control rating (Alternaria solani; 40 ppm (marked *)): 99* %; Test F disease control rating (Septoria nodorum; 40 ppm (marked *)): 0* %; Test G disease control rating (Septoria tritici; 40 ppm (marked *)): 89* %; Test H disease control rating ([1]; 40 ppm (marked *)): 0* %; Test I disease control rating ([2]; 40 ppm (marked *)): 99* %; Test J disease control rating ([3]; 40 ppm (marked *)): 99* %
COc1cc(F)c(-c2c(Cl)nc(Cl)n2C(C)c2ncc(Cl)cc2Cl)c(F)c1 (stereo not drawn) [compound 727] | 98% | 0% | 0% | 89% | 15% | 74% | 21% | 
Fc1cc(-n2c(Cl)nc(CCl)c2-c2cncc(Br)c2)ccc1Cl [compound 355] | 0% | 0% | 0% | 3% | 0% | 28% | 0% | 
COc1cc(F)c(-c2c(Cl)nc(C)n2-c2ccc(C)c(Cl)c2)c(F)c1 [compound 601] |  |  |  |  |  |  |  | Test C disease control rating (Botrytis cinerea; 40 ppm (marked *)): 99* %; Test D disease control rating (Alternaria solani; 40 ppm (marked *)): 98* %; Test F disease control rating (Septoria nodorum; 40 ppm (marked *)): 87* %; Test G disease control rating (Septoria tritici; 40 ppm (marked *)): 99* %; Test H disease control rating ([1]; 40 ppm (marked *)): 7* %; Test I disease control rating ([2]; 40 ppm (marked *)): 97* %; Test J disease control rating ([3]; 40 ppm (marked *)): 97* %
COc1cc(F)c(-c2c(Br)nc(Cl)n2-c2ccc(OC)nc2)c(F)c1 [compound 710] | 100% | 100% | 100% | 98% | 99% | 100% | 98% | 
N#Cc1ccc(F)c(-c2c(CCl)nc(Cl)n2-c2ccc(Cl)nc2)c1F [compound 717] | 100% | 100% | 0% | 99% | 0% | 96% | 79% | 
Fc1ccc(F)c(-c2c(Cl)nc(Br)n2Cc2ccc(Cl)cc2)c1F [compound 286] |  |  |  |  |  |  |  | Test C disease control rating (Botrytis cinerea; 200 ppm, 0 = no control): 99%; Test D disease control rating (Alternaria solani; 200 ppm, 0 = no control): 96%; Test F disease control rating (Septoria nodorum; 200 ppm, 0 = no control): 79%; Test G disease control rating (Septoria tritici; 200 ppm, 0 = no control): 95%; Test H disease control rating ([1]; 200 ppm, 0 = no control): 64%; Test I disease control rating ([2]; 200 ppm, 0 = no control): 99%; Test J disease control rating ([3]; 200 ppm, 0 = no control): 100%
Fc1cccc(-n2c(Cl)nc(Cl)c2-c2c(F)cc(F)cc2F)c1 [compound 365] | 100% | 100% | 40% | 91% | 54% | 99% | 96% | 
COc1cc(F)c(-c2c(Cl)nc(C)n2-c2ccc(F)c(F)c2)c(F)c1 [compound 499] | 99% | 100% | 100% | 93% | 100% | 100% | 100% | 
Fc1cc(-n2cnc(Cl)c2-c2c(F)cncc2F)ccc1Cl [compound 594] | 100% | 99% | 0% | 94% | 78% | 99% | 100% | 
Clc1ccc(-c2c(Cl)nc(Br)n2Cc2cccc(Cl)c2)cc1 [compound 290] |  |  |  |  |  |  |  | Test C disease control rating (Botrytis cinerea; 200 ppm, 0 = no control): 95%; Test D disease control rating (Alternaria solani; 200 ppm, 0 = no control): 0%; Test F disease control rating (Septoria nodorum; 200 ppm, 0 = no control): 0%; Test G disease control rating (Septoria tritici; 200 ppm, 0 = no control): 85%; Test H disease control rating ([1]; 200 ppm, 0 = no control): 11%; Test I disease control rating ([2]; 200 ppm, 0 = no control): 19%; Test J disease control rating ([3]; 200 ppm, 0 = no control): 0%

From US20110045101A1, “FUNGICIDAL SUBSTITUTED AZOLES” (E.I. Du Pont De Nemours and Company, priority 2009, published 2011)
